{"source": "patent US20090036488A1", "about": "“RECURRENCE PREVENTIVE THERAPEUTIC AGENT FOR PSYCHOSTIMULANT-INDUCED PSYCHOSIS AND SCHIZOPHRENIA” (Tokyo Medical and Dental University, priority 2005, published 2009)", "key": {"male ddy mice": {"system": "male ddy mice", "assay": "Test for formation/maintenance of reverse tolerance", "assay_type": "in vivo", "description": "Methamphetamine (hereinafter, may be also referred to as “MAP”) which is a psychostimulant was administered to an animal, and then formation/maintenance of reverse tolerance was verified. In this test, eight-week-old male ddy mice were used. […] First, mice were divided into two groups, and then 1 mg/kg/day MAP and saline were respectively administered to each group for ten days as pretreatment. The agent was prepared by dissolving in saline and administered by subcutaneous injection. Hereinafter, the group to which MAP was administered is called “MAP administrated group”, and the group to which saline was administered is called “SAL administrated group”. MAP of 1 mg/kg used here corresponds an amount to result in increase in locomotor hyperactivity when it is administered to mice. In addition, a first administration of MAP was conducted after a 10-day washout period in order to confirm if this phenomenon was maintained. The dosage, 0.24 mg/kg, was less than that of the pretreatment, which is reportedly a quantity not causing abnormal behavior to appear in normal mice received the administration. Then, following a 29-day washout period, a second administration was conducted. Upon the administration on the day 10 and the day 29, MAP was also administered to the SAL administrated group in the same amount as administered to the MAP administrated group.\nDuring the pretreatment, activity quantity in an hour was measured after MAP or saline administration on Days 1, 3, 7, and 10. […] In the case of a typical drug administration, tolerance is formed to gradually decrease influences of the administered drug.\nIn addition, comparing the MAP administrated group with the SAL administrated group, in both administrations on day 10 and day 29, it was clear that the activity quantity of the MAP administrated group was higher, so that it was confirmed that influences of the drug were maintained even after a longer than one-month washout period."}, "[1]": {"system": "MAP reverse tolerance model", "assay": "Test to confirm effects of administration with fluoxetine or paroxetine in the MAP reverse tolerance model", "assay_type": "in vivo, mice", "description": "Regarding formation of reverse tolerance, 1 mg/kg/day MAP was administered to eight-week-old male ddy mice for ten days as a pretreatment in a similar way to the abovementioned method. After a 11-day washout period, 10 mg/kg/day fluoxetine was then administered. Fluoxetine was prepared by dissolving in saline and administered by subcutaneous injection. In addition, after 9 to 11-day washout period, 0.24 mg/kg MAP was administered, the locomotor hyperactivity of the mice was measured and evaluated one hour later.\nRegarding formation of reverse tolerance, MAP 1 mg/kg/day […] was administered to eight-week-old male ddy mice for ten days as a pretreatment in a similar way to the abovementioned method. After an 11-day washout period, 8 mg/kg/day paroxetine was then administered. Paroxetine was prepared by dissolving in saline and administered by subcutaneous injection. In addition, after 9 to 11-day washout period, 0.24 mg/kg MAP was administered, and the locomotor hyperactivity of the mice was measured and evaluated one hour later."}}}
{"smiles": "CN[C@@H](C)Cc1ccccc1", "note": "[MAP, Methamphetamine]", "values": [{"measurement": "activity quantity after MAP re-administration, MAP administrated group vs SAL administrated group", "setting": "male ddy mice; 0.24 mg/kg MAP on day 10 and day 29 after washout", "value": "higher"}, {"measurement": "formation of reverse tolerance", "setting": "male ddy mice; MAP 1 mg/kg/day s.c. for ten days", "value": "reverse tolerance was formed"}, {"measurement": "activity quantity in an hour (locomotor hyperactivities per hour) during pretreatment", "setting": "male ddy mice; MAP 1 mg/kg/day s.c. for ten days, measured on Days 1, 3, 7 and 10", "value": "increased in a time dependent manner"}]}
{"smiles": "CNCCC(Oc1ccc(C(F)(F)F)cc1)c1ccccc1", "note": "(stereo not drawn) [FLX, fluoxetine]", "values": [{"measurement": "locomotor hyperactivity vs group without FLX in the treatment phase (Example 1 vs Comparative Example 7)", "setting": "[1]; MAP 1 mg/kg/day for 10 days, 11-day washout, fluoxetine 10 mg/kg/day s.c., 9 to 11-day washout, 0.24 mg/kg MAP, measured one hour later", "value": "locomotor hyperactivity decreased"}, {"measurement": "reverse tolerance, vs group in which reverse tolerance was not formed (Example 1 vs Comparative Example 3)", "setting": "[1]; fluoxetine 10 mg/kg/day s.c. after MAP pretreatment, 0.24 mg/kg MAP challenge", "value": "reverse tolerance disappeared"}, {"measurement": "effect of FLX itself on activity quantity (Comparative Example 1 vs 2, 3 vs 4)", "setting": "[1]; saline pretreatment, reverse tolerance not formed, fluoxetine 10 mg/kg/day s.c.", "value": "did not decrease the activity quantity"}]}
{"smiles": "Fc1ccc([C@@H]2CCNC[C@H]2COc2ccc3c(c2)OCO3)cc1", "note": "[PLX, paroxetine]", "values": [{"measurement": "locomotor hyperactivity vs group without PLX in the treatment phase (Example 2 vs Comparative Example 14)", "setting": "[1]; MAP 1 mg/kg/day for 10 days, 11-day washout, paroxetine 8 mg/kg/day s.c., 9 to 11-day washout, 0.24 mg/kg MAP, measured one hour later", "value": "locomotor hyperactivity decreased"}, {"measurement": "reverse tolerance, vs group in which reverse tolerance was not formed (Example 2 vs Comparative Example 10)", "setting": "[1]; paroxetine 8 mg/kg/day s.c. after MAP pretreatment, 0.24 mg/kg MAP challenge", "value": "reverse tolerance disappeared"}, {"measurement": "effect of PLX itself on activity quantity (Comparative Example 8 vs 9, 10 vs 11)", "setting": "[1]; saline pretreatment, reverse tolerance not formed, paroxetine 8 mg/kg/day s.c.", "value": "did not decrease activity quantity"}]}
